Source: patent US11136325B2, “Pyrrolopyrimidine and pyrrolopyridine derivatives” (GALAPAGOS NV, priority 2017, dated 2021)

Biological target: hASK1 (Homo sapiens (Human), UniProt Q99683)
Assay: ASK1 biochemical assay (IMAP technology)
Conditions: 150 μM ATP, 6 nM hASK1
Description: IMAP® technology provides a homogeneous assay applicable to a wide variety of kinases, phosphatases, and phosphodiesterases without regard for substrate peptide sequence. The assay is a simple mix-and-read procedure allowing accurate determination of enzyme activity. Based on the specific, high-affinity interaction of phospho groups with trivalent metal-containing nanoparticles (beads), IMAP is a generic, non-antibody-based platform to assess kinase, phosphatase, and phosphodiesterase activity. An enzyme reaction is performed using fluorescently labeled substrate. Addition of the IMAP Binding System stops the enzyme reaction and initiates binding of the beads to phosphorylated substrates. Binding of the substrate to the beads, which correlates to enzyme activity, can be detected using either FP or TR-FRET as a readout.
Apoptosis Signal-regulating Kinase (ASK1), also known as MAP3K5, is a member of the mitogen-activated protein kinase kinase kinase (MAP3K) family of kinases. It activates the Jnk and p38 pathways through the MAP2Ks MKK4/7 and MKK3/6 (respectively). This ASK1 IMAP assay uses the following IMAP peptide: RP7140-T2 (5TAMRA-GTFRAAIRRLAARRR-OH, SEQ ID NO: 1). The assay has been configured to run at Km for ATP ([…]) so that it will be sensitive to ATP-competitive inhibitors. The final assay conditions are […], 1 mM DTT, 200 nM peptide and 6 nM ASK1 (total protein). The binding reagent is made up in 100% A at a final dilution of 1:200.
KIT IMAP FP, Cat. No. R8127; Reaction Buffer-Tween (5× conc.), Molecular Devices, Cat. No. R7436; Diluted 1:5 with H2O and containing DTT (1 mM from 1M stock); Progressive Binding Buffer (PBB) A (5× conc.), Molecular Devices, Cat. No. R7282; Progressive Binding Reagent (PB Reagent), Molecular Devices, Cat. No. R7284; Enzyme Solution (containing 2× Ask1 in Reaction buffer); Substrate Solution (containing 2× peptide substrate in Reaction buffer, and 2×150 μM ATP in Reaction buffer); Bead Buffer (Progressive Binding Buffer A diluted 1:5 with H2O); Bead Solution (Bead Buffer containing 1:200 Progressive Binding Reagent (2×))
100 nL of test compound in 100% DMSO was added to 384-well plates. For a dose response experiment a 1 in 4 dilution of compound (25 μM top final concentration) was used. 3 μL of hASK1 (6 nM), hASK2 (25 nM) or rASK1 (15 nM) was added to each well except in the control well to which 3 μL buffer was added. 3 μL of substrate solution was added to each well and the plates were incubated for 4 h at room temperature. After which time 6 μL of IMAP™ Bead Solution (Progressive Binding Buffer A+PB Reagent; final dilution 1:100) was added to each well and spun for 1 minute at 1000 rpm. The plates were then incubated for 2 h at room temperature after which time the plates were read on a Perkin Elmer EnVision plate reader.
Calculation of IC50 data, curves and QC analysis was made by using Excel tools and GraphPadPrism software, v. 5.03. Briefly, individual concentration-effect curves are generated by plotting the logarithm of the tested concentration of tested compounds (X) vs. corresponding percent inhibition values (Y) using least squares (ordinary) fit. Up to ¼ points from high/low controls are allowed to be excluded, but only if values are >Avg.±1*SD. Fitting equation used for IC50 calculation=log(inhibitor) vs. response−Variable slope (four parameters). Calculated results: Calc 1: mP value for FP measurement=1000*(S−G*P)/(S+G*P) where S=<detector 2 or FP-BodipyTAMRA_Ex531-Em579-optimized(1) channel 2>P=<detector 1 or FP-BodipyTAMRA_Ex531-Em579-optimized(1) channel 1>G=G-factor. Gain=100. Top constrain is used only if top values are not correctly calculated.
Minimum constrained if less than −30% I or greater than 30% I. Maximum constrained if less than 70% I or greater than 130% I. Z′-Factor Target>0.4. Hill Slope range 0.5 to 5.

Sequence of hASK1 (Q99683 whole entry): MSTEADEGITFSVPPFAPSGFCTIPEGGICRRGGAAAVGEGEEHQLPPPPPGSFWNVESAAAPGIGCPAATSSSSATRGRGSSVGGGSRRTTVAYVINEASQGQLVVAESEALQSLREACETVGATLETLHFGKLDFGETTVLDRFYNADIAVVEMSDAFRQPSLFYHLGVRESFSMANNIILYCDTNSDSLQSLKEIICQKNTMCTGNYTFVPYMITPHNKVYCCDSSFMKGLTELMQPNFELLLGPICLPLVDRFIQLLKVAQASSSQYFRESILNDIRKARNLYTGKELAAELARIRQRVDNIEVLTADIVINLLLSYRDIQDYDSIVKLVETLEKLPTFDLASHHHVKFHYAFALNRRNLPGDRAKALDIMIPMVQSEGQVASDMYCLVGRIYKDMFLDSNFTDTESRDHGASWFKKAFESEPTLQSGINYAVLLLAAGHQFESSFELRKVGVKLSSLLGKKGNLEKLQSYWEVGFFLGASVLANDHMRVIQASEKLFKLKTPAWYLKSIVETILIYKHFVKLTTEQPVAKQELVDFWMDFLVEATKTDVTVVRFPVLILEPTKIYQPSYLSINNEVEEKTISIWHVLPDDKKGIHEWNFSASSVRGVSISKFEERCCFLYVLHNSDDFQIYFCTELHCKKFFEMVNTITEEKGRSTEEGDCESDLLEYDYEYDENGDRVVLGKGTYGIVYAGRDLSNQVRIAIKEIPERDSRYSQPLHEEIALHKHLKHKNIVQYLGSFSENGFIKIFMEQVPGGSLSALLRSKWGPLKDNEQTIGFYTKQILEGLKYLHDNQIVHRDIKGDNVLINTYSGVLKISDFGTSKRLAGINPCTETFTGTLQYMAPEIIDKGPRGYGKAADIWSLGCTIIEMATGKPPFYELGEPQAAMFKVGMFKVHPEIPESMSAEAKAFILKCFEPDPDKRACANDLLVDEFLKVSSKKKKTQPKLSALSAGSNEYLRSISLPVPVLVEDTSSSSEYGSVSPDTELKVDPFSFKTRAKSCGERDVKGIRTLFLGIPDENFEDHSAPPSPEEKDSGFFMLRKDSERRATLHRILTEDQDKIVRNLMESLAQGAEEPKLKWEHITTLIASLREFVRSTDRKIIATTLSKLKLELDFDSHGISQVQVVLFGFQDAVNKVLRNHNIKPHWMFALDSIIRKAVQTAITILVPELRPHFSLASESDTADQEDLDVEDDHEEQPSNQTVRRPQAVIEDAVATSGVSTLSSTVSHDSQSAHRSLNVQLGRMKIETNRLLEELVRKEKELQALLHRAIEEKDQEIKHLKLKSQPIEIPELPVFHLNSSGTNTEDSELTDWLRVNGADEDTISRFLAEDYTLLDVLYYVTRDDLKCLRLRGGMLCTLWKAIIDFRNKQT

**Q.** `Cc1c[nH]c2ncnc(N3CCC(NC(=O)c4cc(N)ncc4F)CC3)c12` [Compound 1, 2-amino-5-fluoro-N-[1-(5-methyl-7H-pyrrolo[2,3-d]pyrimidin-4-yl)-4-piperidyl]pyridine-4-carboxamide] was tested. Which “Inhibition (pIC50) ASK1” value did it give?
**A.** 8.24

**Q.** With `Cc1cnc(N)cc1C(=O)NC1CCN(c2ncnc3[nH]cc(C)c23)CC1` [Compound 2, 2-amino-5-methyl-N-[1-(5-methyl-7H-pyrrolo[2,3-d]pyrimidin-4-yl)-4-piperidyl]pyridine-4-carboxamide] as the molecule, how does the “Inhibition (pIC50) ASK1” value read?
**A.** 8.17

**Q.** For `Cc1c[nH]c2ncnc(N3CCC(NC(=O)c4cc(N)ncc4Cl)CC3)c12` [Compound 3, 2-amino-5-chloro-N-[1-(5-methyl-7H-pyrrolo[2,3-d]pyrimidin-4-yl)-4-piperidyl]-pyridine-4-carboxamide], which “Inhibition (pIC50) ASK1” value is on record?
**A.** 8.05/—

**Q.** For `Nc1cc(C(=O)NC2CCN(c3ncnc4[nH]cc(Cl)c34)CC2)ccn1` [Compound 4, 2-amino-N-[1-(5-chloro-7H-pyrrolo[2,3-d]pyrimidin-4-yl)-4-piperidyl]pyridine-4-carboxamide], which “Inhibition (pIC50) ASK1” value is on record?
**A.** 8.46

**Q.** How did the “Inhibition (pIC50) ASK1” value turn out when `Nc1cc(C(=O)NC2CCN(c3ncnc4[nH]cc(Cl)c34)CC2)c(F)cn1` [Compound 5, 2-amino-N-[1-(5-chloro-7H-pyrrolo[2,3-d]pyrimidin-4-yl)-4-piperidyl]-5-fluoro-pyridine-4-carboxamide] was run?
**A.** 8.43/—

**Q.** With `Cc1c[nH]c2ncc(C#N)c(N3CCC(NC(=O)c4cc(N)ncc4F)CC3)c12` [Compound 6, 2-amino-N-[1-(5-cyano-3-methyl-1H-pyrrolo[2,3-b]pyridin-4-yl)-4-piperidyl]-5-fluoro-pyridine-4-carboxamide] as the molecule, how does the “Inhibition (pIC50) ASK1” value read?
**A.** 8.98/—

**Q.** For `Nc1cc(C(=O)NC2CCN(c3ccnc4[nH]cc(Cl)c34)CC2)c(F)cn1` [Compound 7, 2-amino-N-[1-(3-chloro-1H-pyrrolo[2,3-b]pyridin-4-yl)-4-piperidyl]-5-fluoro-pyridine-4-carboxamide], which “Inhibition (pIC50) ASK1” value is on record?
**A.** 8.24/—
